Experimental data: PubChem BioAssay (NCI)
Values joined by “and” are separate entries in the source; they are usually repeats but may differ in a detail not shown here. Equal values may be shown once.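 1) Cells in 96-well plates. 2) Compound, 48 h, 5 concentrations. 3) Linear interpolation between surrounding doses. 4) Unreached endpoint = highest concentration. Here, GI50 denotes the concentration required for 50% inhibition of growth. At the TGI there is no net growth.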

Experiments:
Assay in all cases: NCI-60 cell line screen, 48 h
SNB-75 CNS = test system: SNB-75 CNS
SF-268 CNS = test system: SF-268 CNS
OVCAR-8 ovarian = test system: OVCAR-8 ovarian
NCI-H226 lung = test system: NCI-H226 lung
PC-3 prostate = test system: PC-3 prostate
CCRF-CEM leukemia = test system: CCRF-CEM leukemia
OVCAR-3 ovarian = test system: OVCAR-3 ovarian
A549 NSCLC = test system: A549 NSCLC
786-0 renal = test system: 786-0 renal
DU-145 prostate = test system: DU-145 prostate

SMILES	TGI (SNB-75 CNS)	TGI (SF-268 CNS) [µM]	TGI (OVCAR-8 ovarian) [µM]	TGI (NCI-H226 lung)	TGI (PC-3 prostate)	TGI (CCRF-CEM leukemia)	TGI (OVCAR-3 ovarian)	TGI (A549 NSCLC)	TGI (786-0 renal)	TGI (DU-145 prostate)	GI50 (SNB-75 CNS)	GI50 (SF-268 CNS) [µM]	GI50 (NCI-H226 lung)	GI50 (PC-3 prostate)	GI50 (CCRF-CEM leukemia)	GI50 (OVCAR-3 ovarian)	GI50 (A549 NSCLC)	GI50 (786-0 renal)	GI50 (DU-145 prostate)	GI50 (OVCAR-8 ovarian) [µM]
CC1(C)CCC(C)(C)c2cc(C(=O)Nc3ccc(C(=O)O)cc3)ccc21	> 100 µM	> 87.4	> 88.5	> 65.5 µM	51.7 µM	> 80.8 µM	40.4 µM	> 75.1 µM	> 56.5 µM	> 73.6 µM										
COC1/C=C/OC2(C)Oc3c(C)c(O)c4c(c3C2=O)C(=O)C=C(NC(=O)/C(C)=C\C=C\C(C)C(OC=O)C(C)C(O)C(C)C(OC(C)=O)C1C)C4=O (centres undefined)	41.1 µM	37.1	33.5	21.5 µM	25.1 µM	6.4 µM	11.9 µM	39.7 µM	20.8 µM	33 µM										
CN1CCCN(CCNc2nccc(-c3c(-c4cccc(O)c4)nc4sccn34)n2)S1(=O)=O	75 µM and > 100 µM	> 100		50 µM and 54.5 µM	75 µM and > 100 µM	75 µM and 46.6 µM	75 µM and 99 µM	75 µM and > 100 µM	72.4 µM and > 100 µM	46.9 µM and > 59.3 µM	1.47 µM and 2.19 µM	17.7	15.3 µM and 11.3 µM	16.3 µM and 14.6 µM	8.29 µM and 4.7 µM	13.7 µM and 7.69 µM	7.46 µM and 7.71 µM	5.55 µM and 7.14 µM	6.84 µM and 6.32 µM	
Cn1cc(C2=C(c3cn(C)c4ccc(N)cc34)C(=O)NC2=O)c2ccccc21	> 21.2 µM	> 25	> 25	> 25 µM	> 25 µM	> 25 µM	16 µM	> 25 µM	> 25 µM	> 25 µM	1.63 µM	15.6	> 17.6 µM	9 µM	6.95 µM	4.79 µM	12.5 µM	19.7 µM	12.3 µM	17
O=C(Nc1ccc(OC(F)(F)F)cc1)c1sccc1NCc1ccnc2ccccc12	26.5 µM	> 100	> 56.4	> 90.6 µM	> 83.3 µM	> 100 µM	> 100 µM	> 100 µM	> 88.1 µM	> 100 µM	1.88 µM	5.26	2.89 µM	3.74 µM	3.72 µM	4.89 µM	4.11 µM	7.53 µM	3.65 µM	4.18
NS(=O)(=O)c1ccc(N2Cc3cc(Cl)ccc3OC3=C2C(=O)N(CC2CCCCC2)C3=O)cc1	2.13 µM	2.69		3.6 µM	2.09 µM		0.429 µM	3.99 µM	0.482 µM	2.25 µM	0.784 µM	1.22	1.54 µM	0.519 µM		0.207 µM	2.13 µM	0.207 µM	1.06 µM	
Cc1cc2c(cc1C)NC1=C(N2)OC(c2c[nH]c3ccc(COc4ccccc4)cc23)C1=O (centres undefined)	38.7 µM	> 100	> 100	> 100 µM	> 100 µM		> 100 µM	> 100 µM	> 100 µM	> 100 µM										
CCN(c1ccc(CO)c(Cl)c1)C(C)c1ccc(F)cc1 (centres undefined)	26.8 µM	31.9	30.2	2.31 µM	26.7 µM	41.2 µM	27.3 µM	27.9 µM	30.4 µM	31.2 µM	13 µM	17	0.49 µM	13.1 µM	18 µM	13.7 µM	13.1 µM	16.4 µM	16.9 µM	14.1
Nc1cc2c3c(cccc3c1)NC2=O	> 100 µM	> 100	> 100	> 100 µM	> 100 µM	> 100 µM	> 100 µM	> 100 µM	> 100 µM	> 100 µM										
COc1ccc2nc(-c3ccccc3)cc(Nc3cccc(/C(C)=N\O)c3)c2c1	> 100 µM	9.06	> 100	11.1 µM	26.3 µM	> 100 µM		> 100 µM	5.15 µM	31.9 µM	4.49 µM	3.34	3.18 µM	4.72 µM	58.7 µM		4.67 µM	2.09 µM	6.46 µM	3
COc1ccc(C(=O)N2c3ccccc3Sc3ccccc32)c(F)c1	34 µM	> 100	> 100	> 100 µM	> 100 µM	> 100 µM	> 100 µM	> 100 µM	> 100 µM	> 100 µM	0.288 µM	10.7	2.35 µM	0.407 µM	0.522 µM	0.418 µM	1.19 µM	0.675 µM	1.4 µM	2.2
O=C(CC(C(=O)c1cccs1)c1ccc2c(c1)OCO2)c1ccc(Br)cc1 (centres undefined)	> 100 µM	> 100	> 100	> 100 µM	> 100 µM	> 100 µM		> 100 µM	> 100 µM	> 100 µM										
Nc1cc(N)c2nc(-c3ccccc3)c(Oc3ccc(F)cc3)nc2c1	49.4 µM	47.6	47.4	49.1 µM	46.3 µM		41.7 µM	46.3 µM	36.3 µM	36.8 µM	23.5 µM	13.8	20.3 µM	7.27 µM		15.4 µM	24.2 µM	15.7 µM	17.2 µM	22.5
O=c1oc2ccccc2c(O)c1C=NC(=S)c1ccncc1	> 100 µM		> 100	> 100 µM	> 100 µM		> 100 µM	> 100 µM	> 100 µM	> 100 µM										
COc1cc(/C=C2\CN(C)CC3=C2Nc2nc(SC)[nH]c(=O)c2C3c2cc(OC)c(OC)c(OC)c2)cc(OC)c1OC (centres undefined)	22.6 µM	3.4	> 100	22.2 µM	32.4 µM		6.72 µM	13.7 µM	16.9 µM	12.1 µM	7.36 µM	1.66	6.17 µM	3.63 µM		2.64 µM	3.26 µM	4.01 µM	3.6 µM	2.89
